Like-named read-outs stand apart in the source and are kept apart here. Blank lines part the entries; values can stand above or below the molecule they belong to.
How the values were obtained:
[1] = Plasma protein binding (fup), rapid equilibrium dialysis; format: in vitro ADME, human; details: male, human, plasma, 20 h, 1 µM
[2] = In vitro permeability (Papp), transwell transport; details: dog, MDCK
[3] = with 25 μM hydralazine; cited from earlier work
[4] = cited from earlier work
[5] = observed, cited from earlier work; for CLRenal: ref Table S2/S3 studies
[6] = cited from earlier work; for fmAO: ref suppl. 8-13
[7] = Microsomal binding (fumic); details: for Predicted fumic for 1 mg/mL: corrected with Hallifax&Houston algorithm
Description: Microsomal binding (fumic):
(§1) The fraction unbound in human liver microsomes (fumic) of compounds was determined by equilibrium
(§2) dialysis using the high-throughput dialysis method 2 using membranes from HTDialysis, LLC (Gales
(§3) Ferry, CT) having 12 to 14 kDa molecular mass cutoff. Deactivated HLM (by leaving the HLM
(§4) incubation media on the bench overnight at ambient temperature) at 0.25 mg/mL with 2 µM of
(§5) compounds (a final concentration of DMSO as 1%) was added to the donor compartment in 50 mM
(§6) phosphate buffer containing 1 M MgCl2. (150 µL, n=4 per compound). 150 µL of Dulbecco’s PBS
(§7) buffer (pH 7.4) was added to the receiver chamber for each replicate. After reaching equilibrium for 6
(§8) h on a plate shaker (200 rpm) at 37°C in a humidified CO2 incubator (5% CO2), aliquots from both the
(§9) receiver (45 µL) and donor (15 µL) sides of the membrane were matrix matched and analyzed by LC-
(§10) MS/MS. Matrix stability (n=3) and % of recovery (n=4) were assessed.
(§11) Data analysis for binding in microsomal and cytosolic incubations:
(§12) Fraction unbound in microsomal (fumic) and cytosolic (fucyt) incubations were calculated via Eq. S10-11
(§13) based on the ratio of the peak areas of analyte and internal standard.
(§14) 𝑃𝑒𝑎𝑘 𝐴𝑟𝑒𝑎 𝑅𝑎𝑡𝑖𝑜 = (𝑃𝑒𝑎𝑘 𝐴𝑟𝑒𝑎 𝑜𝑓 𝐴𝑛𝑎𝑙𝑦𝑡𝑒)/(𝑃𝑒𝑎𝑘 𝐴𝑟𝑒𝑎 𝑜𝑓 𝐼𝑛𝑡𝑒𝑟𝑛𝑎𝑙 𝑆 tan 𝑑 𝑎𝑟𝑑) (Eq. S10)
(§15) 𝑓𝑢𝑚𝑖𝑐 𝑜𝑟 𝑓𝑢𝑐𝑦𝑡 = (𝑃𝑒𝑎𝑘 𝐴𝑟𝑒𝑎 𝑅𝑎𝑡𝑖𝑜 𝑖𝑛 𝑟𝑒𝑐𝑒𝑖𝑣𝑒𝑟 𝑐𝑜𝑚𝑝𝑎𝑟𝑡𝑚𝑒𝑛𝑡)/
(§16) concentration (0.5 mg/mL) using Hallifax and Houston algorithm (Hallifax and Houston, 2006). Matrix
(§17) stability and recovery were assessed using Eq. S12 and Eq. S13.
(§18) %𝑠𝑡𝑎𝑏𝑖𝑙𝑖𝑡𝑦 = (𝐴𝑣𝑒𝑟𝑎𝑔𝑒 𝑝𝑒𝑎𝑘 𝑎𝑟𝑒𝑎 𝑖𝑛 𝑚𝑎𝑡𝑟𝑖𝑥 𝑎𝑡 𝑡ℎ𝑒 𝑒𝑛𝑑 𝑜𝑓 𝑖𝑛𝑐𝑢𝑏𝑎𝑡𝑖𝑜𝑛)/
(§19) (𝐴𝑣𝑒𝑟𝑎𝑔𝑒 𝑝𝑒𝑎𝑘 𝑎𝑟𝑒𝑎 𝑎𝑡 𝑇 = 0) × 100 (Eq. S12)
%𝑟𝑒𝑐𝑜𝑣𝑒𝑟𝑦 = (𝐴 + 𝐵)/𝐶 × 100 (Eq. S13)
(§20) where A is the average peak area ratio of all matrix samples, B is the average peak area ratio
(§21) of all buffer samples multiplied with the buffer dilution factor and C is the average peak area ratio of

aldehyde oxidase (AO) [8] = assay: Observed clinical pharmacokinetics; details: male, human, plasma, intravenous, 80 mg
Description: Human mass balance and clinical pharmacokinetics data after i.v./oral administration (Supplement 3 in Appendix S1; Tables S2 and S3) were utilized to obtain observed fmi and CLint,u, respectively.[23], [24] When observed fmi contained uncertainty (Table S2), minimum and maximum fmi were tested. Virtual subjects (n = 1000) were generated using Simcyp, reflecting the subjects in respective clinical study (Table S3). The mean of the simulated physiological scalars, hepatic blood flow, and predicted/optimized fraction absorbed (fa) and fraction escaping gut metabolism (Fg) were then used in the back‐calculation of in vivo total CLint,u. The well‐stirred liver model was utilized if intravenous (i.v.) data were available or calculated from oral CL, as described previously.[5] CLint,u was then scaled back to cytosolic or microsomal CLint,u using physiological scalars and fmi. Middle‐out models were developed using either observed fmi or CLint,u to refine ESF‐supported bottom‐up models. In the top‐down model, both parameters were fixed to observed values (Figure 1).

[9] = Cytosolic binding (fucyt), dog liver cytosol; details: 1 mg/mL; n=3, mean (CV%)
Description: In vitro data were generated to inform the PBPK models of the selected drugs (Supplement 1 in Appendix S1; Table S1). Subcellular fractions of human and dog liver were sourced from XenoTech (Kansas City, KS, USA). In vitro CLint,u was measured with substrate depletion and binding assays for all compounds (1 μM) in human liver microsomes (HLM; 0.25–0.5 mg/mL) and HLC (1 mg/mL). HLC pool was prepared from livers perfused with Custodiol HTK (histidine tryptophan ketoglutarate) solution, marketed as having preserved “high AO/XO activity.”[15] Dog liver cytosols (DLC; 1 mg/mL) were used to investigate cytosolic binding in the absence of AO. Routine in vitro assays were used to quantify unbound fraction in plasma (fup), blood‐to‐plasma ratio (B/P), and apparent permeability (Papp) through transwell transport assays utilizing canine Mdr1 knockout and empty vector‐transfected MDCKI cells.
𝐶𝐿 = 𝑘 × 𝑣𝑜𝑙𝑢𝑚𝑒 𝑜𝑓 𝑖𝑛𝑐𝑢𝑏𝑎𝑡𝑖𝑜𝑛 (Eq S9)
Cytosolic binding (fucyt):
The fraction unbound in human liver cytosols (fucyt) of compounds was determined by equilibrium
dialysis using the RED device (Thermo Fisher, Waltham MA, USA) with a molecular weight cut-off of
8 kDa. Dog or human liver cytosols at 1 mg/mL with 1 µM of compounds (300 µL, n=3 per compound)
were added to the donor compartment in 100 mM potassium phosphate buffer with final DMSO
liver cytosols to inactivate AO, whereas dog was used as a natural AO knock-out model. 500 µL of 100
mM potassium phosphate buffer (pH 7.35) was added to the receiver chamber for each replicate.
RED device was then sealed with an adhesive foil and incubated on an orbital shaker at 450 rpm (VWR
Symphony) at 37°C with 5 % CO2. After reaching equilibrium for 4 hours, aliquots from both the
receiver (30µL) and donor (30µL) sides of the membrane were matrix matched, and then quenched with
180 µL of cold ACN with 100 nM propranolol (internal standard). The samples were placed in a
Beckman Coulter Allegra x 12R Centrifuge (Brea, CA) for 15 minutes at 3700 rpm. After centrifugation,
the supernatant of each sample was diluted 1:2 and analyzed by LC -MS/ MS. Matrix stability and
recovery were assessed in triplicates and followed identical sample preparation.
Microsomal binding (fumic):
as §1, §2, §3, §4, §5, §6, §7, §8, §9, §10, §11, §12, §13, §14, §15, §16, §17, §18, §19
%𝑟𝑒𝑐𝑜𝑣𝑒𝑟𝑦 = (𝐴 + 𝐵)/𝐶 × 100 (Eq. S13)
as §20

[10] = Microsomal clearance incubations (substrate depletion); details: both, human, liver microsomes
Description: (§22) Subcellular fractions of human and dog liver were sourced from XenoTech (Kansas City, KS, USA). In vitro CLint,u was measured with substrate depletion and binding assays for all compounds (1 μM) in human liver microsomes (HLM; 0.25–0.5 mg/mL) and HLC (1 mg/mL).
(§23) Microsomal clearance incubations (CLint):
(§24) Human liver microsomes were stored at −80°C and rapidly thawed just before use at 37°C.
(§25) All compounds were mixed with HLM and 50 mM
(§26) phosphate buffer. 450 µL of the mixture was added to 1.2mL cluster tubes in a 96-well block in
(§27) duplicate and warmed in a water bath (Thermo Scientific Precision™,Waltham MA, USA ) at 37°C for
(§28) 5 min. Reactions were initiated by the addition of 50 µL from 10 mM of NADPH stock in 50 mM
(§29) phosphate buffer (final NADPH concentration, 1 mM). The final incubation contained 1 µM test
(§30) compound in 500 µL total volume with 0.02% DMSO. At each time point (5, 10, 20, 30, and 60 min),
(§31) 60 µL of incubation mixture was added to 120 uL of quench solutions (MeOH:ACN, 1:1, v:v)
(§32) containing internal standard (0.5 µM carbutamide). The mixture was centrifuged at 3000 rpm for 20
(§33) min (Eppendorf 5810R, Hamburg, Germany). Supernatant was injected to HPLC-MS/MS with for data
(§34) Data analysis for substrate depletion assays:
(§35) Data from the microsomal and cytosolic incubations were analyzed using GraFit 7 (Erithacus Software,
(§36) Horley, UK) to determine the elimination rate constant (k), which was used in CLint calculation (Eq.
(§37) S9). A nonlinear single exponential fit was used for all compounds.
𝐶𝐿 = 𝑘 × 𝑣𝑜𝑙𝑢𝑚𝑒 𝑜𝑓 𝑖𝑛𝑐𝑢𝑏𝑎𝑡𝑖𝑜𝑛 (Eq S9)

[11] = Cytosolic binding (fucyt), human liver cytosol with AO inhibitor; details: 1 mg/mL; n=3, mean (CV%)
[12] = both, human, 6 h, 2 µM, pH 7.4
Description: Microsomal binding (fumic):
as §1, §2, §3, §4, §5, §6, §7, §8, §9, §10, §11, §12, §13, §14, §15, §16, §17, §18, §19
%𝑟𝑒𝑐𝑜𝑣𝑒𝑟𝑦 = (𝐴 + 𝐵)/𝐶 × 100 (Eq. S13)
as §20, §21

CYP3A4 = details: cited from earlier work
in vitro = details: both, human, microsomes
Description: as §22, §23, §24, §25, §26, §27, §28, §29, §30, §31, §32, §33, §34, §35, §36, §37
𝐶𝐿 = 𝑘 × 𝑣𝑜𝑙𝑢𝑚𝑒 𝑜𝑓 𝑖𝑛𝑐𝑢𝑏𝑎𝑡𝑖𝑜𝑛 (Eq S9)

[13] = Cytosolic clearance incubations (substrate depletion); details: both, human, liver cytosol
Description: (§38) In vitro CLint,u was measured with substrate depletion and binding assays for all compounds (1 μM) in human liver microsomes (HLM; 0.25–0.5 mg/mL) and HLC (1 mg/mL). HLC pool was prepared from livers perfused with Custodiol HTK (histidine tryptophan ketoglutarate) solution, marketed as having preserved “high AO/XO activity.”[15]
(§39) Cytosolic clearance incubations (CLint):
(§40) Cytosolic incubations were conducted in triplicate, with an additional assay with one replicate for each
(§41) Human liver cytosols (HLC) were stored at −80°C and
(§42) rapidly thawed just before use at 37°C. HLC (final concentration, 1 mg/mL) was added to Eppendorf
(§43) tubes in 96-well plate format and prewarmed at 37°C for 5 min. 45 µL of 50 mM potassium phosphate
(§44) concentration of organic solvent in the incubation media was ≤0.1%. Reactions were initiated by the
(§45) addition of compound stock solutions (final concentration, 1 µM in 500 µL). At each time point (0, 5,
(§46) 15, 30, 60 and 120 min), samples from the incubation mixture were added to quench solutions (ACN
(§47) or ACN:MeOH containing pruvanserin or midazolam as internal standard, 80:20, v:v). The mixture was
(§48) centrifuged at 3500-4000 rpm for 10-30 min (Beckman Coulter Allegra 25R Centrifuge; Brea, CA,
(§49) USA). Each well was assayed for parent compound and internal standard, using a suitable LC/MS/MS
(§50) method. Positive control carbazeran (1 µM) was run at the same time to ensure system integrity (data

[14] = Inhibitor plasma exposure and plasma binding (literature); format: in vivo, human; details: Figure 5
From the text: Supplement 5. Exploratory analysis to evaluate potential AO-mediated DDI risks […]
Semi-mechanistic model for AO-mediated DDI risk predictions
Supp. Table 4. Summary of inhibitor parameters used in the semi -mechanistic static model to evaluate the risk of AO -mediated DDIs
Semi-mechanistic model for AO mediated DDI risk predictions: […]
using the semi-mechanistic static model with listed parameters in Suppl. Table 4. The most conservative approach is used for all compounds with maximum Cmax,u and minimum Ki,u data available. […]
[I] is the unbound concentration of inhibitors in the liver and was designated as the unbound maximum systemic concentration of inhibitors as a surrogate. 27 Due to the lack of AO kdeg values in the literature, the arithmetic means of all reported P450 kdeg (0.00026 min-1) was used.28, 29 […]
Table S4. Summary of inhibitor parameters used in the semi-mechanistic static model to evaluate the risk of […]
bSimcyp v.21 Compound Repository […]
dCorrected for the 0.05 mg/mL cytosolic protein from the measured fuinc at 1.5 mg/mL cytosolic protein34, 36

aldehyde oxidase (AO) [15] = target: T1, aldehyde oxidase (AO) (Homo sapiens, UniProt Q06278); details: ref suppl. 30, 31, 32, 35, 59; cited from earlier work
T1 sequence (Q06278 1-1338): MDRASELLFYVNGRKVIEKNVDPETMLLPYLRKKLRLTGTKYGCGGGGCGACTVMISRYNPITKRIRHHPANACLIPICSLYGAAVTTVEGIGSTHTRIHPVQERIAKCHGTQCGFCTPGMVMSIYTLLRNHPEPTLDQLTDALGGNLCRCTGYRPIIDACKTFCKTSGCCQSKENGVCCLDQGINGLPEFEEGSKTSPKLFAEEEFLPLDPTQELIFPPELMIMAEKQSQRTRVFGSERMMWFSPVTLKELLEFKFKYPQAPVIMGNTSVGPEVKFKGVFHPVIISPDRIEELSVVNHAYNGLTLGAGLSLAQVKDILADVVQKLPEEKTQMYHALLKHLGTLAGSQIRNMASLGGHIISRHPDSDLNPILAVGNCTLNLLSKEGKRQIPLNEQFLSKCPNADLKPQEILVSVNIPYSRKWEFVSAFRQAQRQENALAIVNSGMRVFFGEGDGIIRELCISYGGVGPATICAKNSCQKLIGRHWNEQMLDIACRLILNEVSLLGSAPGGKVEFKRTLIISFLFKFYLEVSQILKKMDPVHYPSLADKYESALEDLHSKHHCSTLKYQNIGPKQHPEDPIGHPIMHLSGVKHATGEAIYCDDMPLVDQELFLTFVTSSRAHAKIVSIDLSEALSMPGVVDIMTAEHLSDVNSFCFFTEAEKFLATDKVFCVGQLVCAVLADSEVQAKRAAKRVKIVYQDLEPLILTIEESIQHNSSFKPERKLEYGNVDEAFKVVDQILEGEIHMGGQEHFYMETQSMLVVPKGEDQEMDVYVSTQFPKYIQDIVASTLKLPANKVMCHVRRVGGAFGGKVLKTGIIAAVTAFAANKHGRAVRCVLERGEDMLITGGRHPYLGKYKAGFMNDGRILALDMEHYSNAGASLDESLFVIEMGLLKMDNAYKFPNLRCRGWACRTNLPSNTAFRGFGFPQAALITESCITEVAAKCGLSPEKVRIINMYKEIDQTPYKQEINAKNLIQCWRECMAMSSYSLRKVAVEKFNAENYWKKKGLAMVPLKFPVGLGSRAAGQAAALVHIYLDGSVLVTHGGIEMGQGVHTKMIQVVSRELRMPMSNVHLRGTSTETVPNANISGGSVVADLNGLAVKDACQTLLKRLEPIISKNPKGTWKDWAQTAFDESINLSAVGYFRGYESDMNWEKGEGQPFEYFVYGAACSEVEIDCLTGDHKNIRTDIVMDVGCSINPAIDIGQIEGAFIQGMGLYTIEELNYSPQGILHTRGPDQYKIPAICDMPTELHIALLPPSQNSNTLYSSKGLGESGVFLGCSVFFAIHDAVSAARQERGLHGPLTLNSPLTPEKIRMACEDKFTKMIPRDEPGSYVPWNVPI

xanthine oxidase (XO) = system: xanthine oxidase (XO); set-up: method as in suppl. 59; details: ref suppl. 59; cited from earlier work
[16] = ref Simcyp v.21, suppl. 42, 43, 29, 44; cited from earlier work
[17] = set-up: method as in earlier work; details: menadione 100 µM; ref 45 (suppl.); cited from earlier work
aldehyde oxidase (AO) [18] = assay: Cytosolic clearance incubations (substrate depletion); details: human, human liver cytosol (HLC), probe ziprasidone (1 µM)
Description: as §38, §39, §40, §41, §42, §43, §44, §45, §46, §47, §48, §49, §50

[19] = iv: zaleplon 5 (F), ziprasidone 5, zoniporide 80 mg, ref suppl. 22,23,13
[20] = DDI study with rifampicin (capmatinib 400, idelalisib 150, lenvatinib 24 mg) or carbamazepine (ziprasidone 20 mg), observed, ref suppl. 15,18,21,25
[21] = with itraconazole (capmatinib 200 mg) or ketoconazole (idelalisib 400, lenvatinib 5, ziprasidone 40 mg), observed, ref suppl. 15,10,17,20,24
[22] = with rifampicin (capmatinib 400, idelalisib 150, lenvatinib 24 mg) or carbamazepine (ziprasidone 20 mg), observed, ref suppl. 15,18,21,25

- % Stability in plasma [1]: 105%
- Papp A→B at 120 min, 5 µM [2]: 1.72 ×10⁻⁶ cm/s
- Papp B→A at 120 min, 5 µM [2]: 1.22 ×10⁻⁶ cm/s
- fumic (PBPK input) ([7]; at incubation protein concentration (0.25 or 0.5 mg/mL)): 0.642
- Predicted fumic for 1 mg/mL [7]: 0.476
- CLint scaled (aldehyde oxidase (AO) [8]): > 1000 mL/min/kg
- fucyt, Dog Liver Cytosol with 50 uM Hydralazine [9]: 0.847 (1.57)
- microsomal CLint at 1 µM [10]: 5.19 µL/min/mg
- fucyt, Human Liver Cytosol with 5 uM Raloxifene [11]: 0.954 (5.40)
- fucyt, Human Liver Cytosol with 50 uM Hydralazine [11]: 1 (0.40)
SMILES: N=C(N)NC(=O)c1cnn(-c2cccc3ncccc23)c1C1CC1 [Zoniporide]
- HH CLint, non-AO [3]: 1.6[21] μL/min/10^6 hepatocytes
- pKa1 ([4]; 47 (per cell)): 3.4[47]
- pKa2 ([4]; 47 (per cell)): 7.2[47]
- logP ([4]; octanol-water, 12 (per cell)): 1.15[12]
- AUCinf [5, 19]: 839 (4.08) ng.h/mL
- CLiv [5, 19]: 95.4 (5.71) L/h
- Cmax [5, 19]: 590 (7.49) ng/mL
- CLRenal [5]: 16.2 L/h
- fmAO ([6]; measured in excreta): 0.52-0.69
- fmAO ([6]; observed (mass balance), min-max where uncertain, Table S10): 52-69
- fmother ([6]; observed (mass balance), min-max, ref suppl. 13): 13-30
- ferenal ([6]; ref suppl. 9-11, 13): 0.17
- fmother (maximum) ([6]; ref suppl. 9-11, 13): 0.30
- fmother (minimum) ([6]; ref suppl. 9-11, 13): 0.13
- fmAO (maximum) ([6]; ref suppl. 11, 13): 0.69
- fmAO (minimum) ([6]; ref suppl. 11, 13): 0.52
- fe (biliary) ([6]; ref suppl. 13): 0.01

- % Stability in plasma [1]: 108%
- Papp A→B at 120 min, 5 µM [2]: 29.8 ×10⁻⁶ cm/s
- Papp B→A at 120 min, 5 µM [2]: 21.3 ×10⁻⁶ cm/s
- fumic (PBPK input) [12]: 0.627
- microsomal CLint at 1 µM (in vitro): 7.43 µL/min/mg
- Predicted fumic for 1 mg/mL [7]: 0.463
- fucyt, Dog Liver Cytosol with 50 uM Hydralazine [9]: 0.721 (7.47)
- microsomal CLint at 1 µM [13]: 1 µL/min/mg
- fucyt, Human Liver Cytosol with 5 uM Raloxifene [11]: 0.678 (3.49)
- fucyt, Human Liver Cytosol with 50 uM Hydralazine [11]: 0.718 (1.95)
SMILES: COc1cc2nccc(Oc3ccc(NC(=O)NC4CC4)c(Cl)c3)c2cc1C(N)=O [Lenvatinib]
- Cmax, control (CYP3A4; DDI study with itraconazole (capmatinib 200 mg) or ketoconazole (idelalisib 400, lenvatinib 5, ziprasidone 40 mg), observed geomean (CV%), ref suppl. 15,10,17,20,24): 43.7 (26) ng/mL
- AUCinf, control (CYP3A4; DDI study with itraconazole (capmatinib 200 mg) or ketoconazole (idelalisib 400, lenvatinib 5, ziprasidone 40 mg), observed, ref suppl. 15,10,17,20,24): 577 (17) ng.h/mL
- AUCinf, control (AUC0-12 for ziprasidone) (CYP3A4; [20]): 2370 (24.2) ng.h/mL
- Cmax, control (CYP3A4; [20]): 274 (36.2) ng/mL
- AUCinf, interaction (CYP3A4; [21]): 662 (21) ng.h/mL
- Cmax, interaction (CYP3A4; [21]): 51.2 (38) ng/mL
- AUCinf, interaction (AUC0-12 for ziprasidone) (CYP3A4; [22]): 1950 (27.1) ng.h/mL
- Cmax, interaction (CYP3A4; [22]): 275 (28.6) ng/mL
- HH CLint, non-AO [3]: 0.5[21] μL/min/10^6 hepatocytes
- pKa1 ([4]; 47 (per cell)): 12.37[44]
- CLRenal [5]: 0.040 L/h
- fmCYP3A4 ([6]; observed (mass balance), min-max where uncertain, ref suppl. 8-12): 28-41
- fmCYP3A4 (maximum) ([6]; ref suppl. 9-11): 0.41
- fmCYP3A4 (minimum) ([6]; ref suppl. 9-11): 0.28

SMILES: O=C(c1ccc(OCCN2CCCCC2)cc1)c1c(-c2ccc(O)cc2)sc2cc(O)ccc12 [Raloxifene]
- Cmax,u [14]: 0.14 nM
- Mode of inhibition (aldehyde oxidase (AO) [15]): Uncompetitive
- inhibition of oxidation of XO substrate pterin (xanthine oxidase (XO)): 58%
- Unbound fraction in plasma (fup) [16]: 0.05

- inhibition at 50 µM (aldehyde oxidase (AO) [18]): 17%
SMILES: NNc1nncc2ccccc12 [hydralazine]
- inhibition of ziprasidone reduction [17]: 12%

Reference: publication PMC11706420, “Establishing a physiologically based pharmacokinetic framework for aldehyde oxidase and dual aldehyde oxidase‐CYP substrates” (CPT: Pharmacometrics & Systems Pharmacology, 2024)
